Source: ChEMBL document CHEMBL4706545, “Antiproliferative effect of mitochondria-targeting allobetulin 1,2,3-triazolium salt derivatives and their mechanism of inducing apoptosis of cancer cells” (Eur J Med Chem, 2020)
Activity calls are given as the source filed them. No cut-off for these calls is given here.

Experiments:
SGC-7901 [1] = assay: Induction of apoptosis in human SGC-7901 cells assessed as necrotic cells at 1 uM incubated for 48 hrs by annexin-V-FITC and PI staining based fluorescence microscopic analysis (reference value: 1.03 %); format: functional
SGC-7901 [2] = assay: Induction of mitochondrial membrane potential disruption in human SGC-7901 cells incubated for 48 hrs by JC-1 dye based flow cytometry analysis; details: Mitochondria, dose 1-4 µM
SGC-7901 [3] = assay: Induction of ROS-mediated apoptosis in human SGC-7901 cells assessed as late apoptotic cells at 4 uM incubated for 48 hrs by annexin V-PE and 7-AAD staining based flow cytometry analysis (reference value: 3.82 %); format: functional
SGC-7901 [4] = assay: Induction of apoptosis in human SGC-7901 cells assessed as late apoptotic cells at 1 uM incubated for 48 hrs by annexin-V-FITC and PI staining based fluorescence microscopic analysis (reference value: 3.87 %); format: functional
HepG2 = assay: Cytotoxicity against human HepG2 cells assessed as reduction in cell viability incubated for 48 hrs by MTT assay; format: functional, cell-based; details: HepG2, 48 h
SGC-7901 [5] = assay: Induction of cell cycle arrest in human SGC-7901 cells assessed as accumulation in S phase at 4 uM incubated for 48 hrs by PI staining based flow cytometry analysis (reference value: 31.13 %); format: functional
SGC-7901 [6] = assay: Induction of ROS-mediated apoptosis in human SGC-7901 cells assessed as necrotic cells at 4 uM incubated for 48 hrs in presence of NAC by annexin V-PE and 7-AAD staining based flow cytometry analysis (reference value: 0.623 %); format: functional
SGC-7901 [7] = assay: Induction of ROS-mediated apoptosis in human SGC-7901 cells assessed as viable cells at 4 uM incubated for 48 hrs in presence of NAC by annexin V-PE and 7-AAD staining based flow cytometry analysis (reference value: 94.8 %); format: functional; details: read-out: Activity
SGC-7901 [8] = assay: Induction of apoptosis in human SGC-7901 cells assessed as upregulation of Bax incubated for 48 hrs by Western blot analysis; format: functional, cell-based; details: dose 1-4 µM
HeLa = assay: Cytotoxicity against human HeLa cells assessed as reduction in cell viability incubated for 48 hrs by MTT assay; format: functional, cell-based
SGC-7901 [9] = assay: Induction of ROS-mediated apoptosis in human SGC-7901 cells assessed as late apoptotic cells at 4 uM incubated for 48 hrs in presence of NAC by annexin V-PE and 7-AAD staining based flow cytometry analysis (reference value: 3.45 %); format: functional
SGC-7901 [10] = assay: Cytotoxicity against human SGC-7901 cells assessed as reduction in cell viability incubated for 48 hrs by MTT assay; format: functional, cell-based; details: SGC-7901, 48 h
L02 = assay: Cytotoxicity against human HL7702 cells assessed as reduction in cell viability incubated for 48 hrs by MTT assay; format: ADME, cell-based; details: L02, 48 h
SGC-7901 [11] = assay: Induction of apoptosis in human SGC-7901 cells at 1 to 4 uM incubated for 48 hrs by AO/PI staining based fluorescence microscopic analysis; format: functional, cell-based; details: dose 1-4 µM
ECa-109 cell line [12] = assay: Cytotoxicity against human ECa-109 cells assessed as reduction in cell viability incubated for 48 hrs by MTT assay; format: functional, cell-based; details: ECa-109, 48 h
SGC-7901 [13] = assay: Induction of ROS-mediated apoptosis in human SGC-7901 cells assessed as viable cells at 1 uM incubated for 48 hrs by annexin V-PE and 7-AAD staining based flow cytometry analysis (reference value: 93.6 %); format: functional; details: read-out: Activity
SGC-7901 [14] = assay: Induction of ROS-mediated apoptosis in human SGC-7901 cells assessed as viable cells at 2 uM incubated for 48 hrs by annexin V-PE and 7-AAD staining based flow cytometry analysis (reference value: 93.6 %); format: functional; details: read-out: Activity
ECa-109 cell line [15] = assay: Induction of cell cycle arrest in human ECa-109 cells assessed as accumulation in G0/G1 phase at 1 uM incubated for 48 hrs by PI staining based flow cytometry analysis (reference value: 52.28 %); format: functional
ECa-109 cell line [16] = assay: Induction of apoptosis in human ECa-109 cells at 1 to 4 uM incubated for 48 hrs by AO/PI staining based fluorescence microscopic analysis; format: functional, cell-based; details: dose 1-4 µM
ECa-109 cell line [17] = assay: Induction of cell cycle arrest in human ECa-109 cells assessed as accumulation in G2/M phase at 4 uM incubated for 48 hrs by PI staining based flow cytometry analysis (reference value: 8.39 %); format: functional
ECa-109 cell line [18] = assay: Induction of cell cycle arrest in human ECa-109 cells assessed as accumulation in G2/M phase at 2 uM incubated for 48 hrs by PI staining based flow cytometry analysis (reference value: 8.39 %); format: functional
ECa-109 cell line [19] = assay: Induction of ROS-mediated apoptosis in human ECa-109 cells assessed as early apoptotic cells at 1 uM incubated for 48 hrs by annexin V-PE and 7-AAD staining based flow cytometry analysis (reference value: 2.70 %); format: functional
ECa-109 cell line [20] = assay: Induction of apoptosis in human ECa-109 cells assessed as early apoptotic cells at 4 uM incubated for 48 hrs by annexin-V-FITC and PI staining based fluorescence microscopic analysis (reference value: 0.971 %); format: functional
ECa-109 cell line [21] = assay: Induction of ROS-mediated apoptosis in human ECa-109 cells assessed as necrotic cells at 2 uM incubated for 48 hrs in presence of NAC by annexin V-PE and 7-AAD staining based flow cytometry analysis (reference value: 1.09 %); format: functional
ECa-109 cell line [22] = assay: Induction of ROS-mediated apoptosis in human ECa-109 cells assessed as viable cells at 2 uM incubated for 48 hrs in presence of NAC by annexin V-PE and 7-AAD staining based flow cytometry analysis (reference value: 94 %); format: functional; details: read-out: Activity
ECa-109 cell line [23] = assay: Induction of ROS-mediated apoptosis in human ECa-109 cells assessed as early apoptotic cells at 2 uM incubated for 48 hrs in presence of NAC by annexin V-PE and 7-AAD staining based flow cytometry analysis (reference value: 1.90 %); format: functional
ECa-109 cell line [24] = assay: Induction of apoptosis in human ECa-109 cells assessed as early apoptotic cells at 2 uM incubated for 48 hrs by annexin-V-FITC and PI staining based fluorescence microscopic analysis (reference value: 0.971 %); format: functional
ECa-109 cell line [25] = assay: Induction of apoptosis in human ECa-109 cells assessed as late apoptotic cells at 1 uM incubated for 48 hrs by annexin-V-FITC and PI staining based fluorescence microscopic analysis (reference value: 2.01 %); format: functional
[26] = Selectivity index, ratio of IC50 for cytotoxicity against human HL7702 cells to IC50 for cytotoxicity against human ECa-109 cells
ECa-109 cell line [27] = assay: Induction of ROS-mediated apoptosis in human ECa-109 cells assessed as late apoptotic cells at 2 uM incubated for 48 hrs by annexin V-PE and 7-AAD staining based flow cytometry analysis (reference value: 3.89 %); format: functional
ECa-109 cell line [28] = assay: Induction of ROS-mediated apoptosis in human ECa-109 cells assessed as necrotic cells at 4 uM incubated for 48 hrs by annexin V-PE and 7-AAD staining based flow cytometry analysis (reference value: 0.729 %); format: functional
ECa-109 cell line [29] = assay: Induction of ROS-mediated apoptosis in human ECa-109 cells assessed as necrotic cells at 4 uM incubated for 48 hrs in presence of NAC by annexin V-PE and 7-AAD staining based flow cytometry analysis (reference value: 1.09 %); format: functional

Structure (SMILES): C[n+]1nn(Cc2c(F)cccc2Cl)c2c1C[C@]1(C)[C@H]3CC[C@@H]4[C@H]5[C@H]6OC[C@@]5(CCC6(C)C)CC[C@@]4(C)[C@]3(C)CC[C@H]1C2(C)C.[I-]
- Activity (SGC-7901 [1]): 1.56%
- Activity (SGC-7901 [2]): Dose-dependent effect
- Activity (SGC-7901 [3]): 99.6%
- Activity (SGC-7901 [4]): 4.79%
- IC50 (HepG2): 2.62 µM
- Activity (SGC-7901 [5]): 22.27%
- Activity (SGC-7901 [6]): 2.66%
- viability at 4 µM (SGC-7901 [7]): 15.3%
- Activity (SGC-7901 [8]): Dose-dependent effect
- IC50 (HeLa): 2.16 µM
- Activity (SGC-7901 [9]): 77.8%
- IC50 (SGC-7901 [10]): 1.12 µM
- IC50 (L02): 2.33 µM
- Activity (SGC-7901 [11]): Active
- IC50 (ECa-109 cell line [12]): 2.63 µM
- viability at 1 µM (SGC-7901 [13]): 80.5%
- viability at 2 µM (SGC-7901 [14]): 60.2%

Structure (SMILES): COc1ccccc1Cn1n[n+](C)c2c1C(C)(C)[C@@H]1CC[C@]3(C)[C@H](CC[C@@H]4[C@H]5[C@H]6OC[C@@]5(CCC6(C)C)CC[C@]43C)[C@@]1(C)C2.[I-]
- Activity (ECa-109 cell line [15]): 54.16%
- Activity (ECa-109 cell line [16]): Active
- Activity (ECa-109 cell line [17]): 22.73%
- Activity (ECa-109 cell line [18]): 16.84%
- Activity (ECa-109 cell line [19]): 11.6%
- Activity (ECa-109 cell line [20]): 2.92%
- Activity (ECa-109 cell line [21]): 5.48%
- viability at 2 µM (ECa-109 cell line [22]): 66.2%
- Activity (ECa-109 cell line [23]): 10.1%
- IC50 (HepG2): 1.52 µM
- Activity (ECa-109 cell line [24]): 20.5%
- IC50 (HeLa): 1.49 µM
- Activity (ECa-109 cell line [25]): 12.9%
- Ratio IC50 [26]: 1.53
- IC50 (SGC-7901 [10]): 1.92 µM
- Activity (ECa-109 cell line [27]): 28.7%
- IC50 (L02): 1.59 µM
- Activity (ECa-109 cell line [28]): 2.19%
- IC50 (ECa-109 cell line [12]): 1.04 µM
- Activity (ECa-109 cell line [29]): 3.83%
